Eleven compounds from patent publication US20090143457A1, “POLYCYCLIC COMPOUNDS FOR USE IN TREATING OCULAR NEURODEGENERATIVE DISEASES” (NORTHEASTERN OHIO UNIVERSITIES COLLEGE OF MEDICINE, priority 2007, published 2009) can be followed below.

The test system of one test is L-type calcium channel. The test is described as follows: IC50 with respect to the L-type calcium channel. The format is biochemical.
The test system of test [1] is MK-801 binding site in the NMDA channel. The test is described as follows: [3H]MK-801 displacement binding in homogenate in the presence of NMDA and Gly. The following applies: for displacement of [3H]MK-801: NMDA (100 μM) and Gly (100 μM), 5 nM [3H]MK-801, relative to total binding; for Hill slope value: dose-response of [3H]MK-801 binding. The procedure:
Now referring to FIG. 3, an example graph 300 that illustrates that at least a subset of the compounds described above have an affinity for the MK-801 binding site in the NMDA channel is presented. More particularly, some triquinylamine compounds may have an affinity for the MK-801 binding site in the NMDA channel. The triquinane-derived azatricycloundecane compounds 100, 102, 108, 116, and 118 (FIGS. 1a, 1b, 1e, 1i, and 1j, respectively) were tested for an ability to displaced labeled MK-801, and the results of such testing are shown in FIG. 3. The graph 300 also illustrates total binding of radiolabeled MK-801 (Total) and non-specific binding of unlabelled MK-801 (NS). […] Specific [^3H]MK-801 binding to the homogenate can be estimated by subtracting non-specific binding (NS) obtained in the presence of 100 μM unlabeled MK-801 from the total binding. Specific binding represented 75% of the total binding and non-specific binding only 25% of total binding at 5 nM [^3H]MK-80 1. Unlabeled MK-80 1 used to determine the non-specific binding also served as a reference compound. NMDA-stimulated displacement for each tested compound was calculated as the difference between the measured value for the labeled MK-801 in the presence of each test compound, and the total binding, although the purpose of the graph 300 represents only the non-specific binding for that particular compound. The compound 118 displaced [^3H]MK-801 by 41.09±4.1%. For the compounds 116, 108, 100, and 102, respectively, there was no statistically significant displacement of [^3H]MK-801, and displacement values were calculated to be 16.93±4.1%, 14.35±7.9%, 20.85±11.7%, and 9.28±6.17%, respectively. Statistical significance compared to total binding in a t-test is (*) p<0.05, (**) p<0.001.
Referring now to FIG. 4, an example graph 400 that illustrates dose-dependent effect of compound 118 shown in FIG. 1j on [^3H]MK-801 binding in the presence of NMDA (100 μM) and Gly (100 μM). More particularly, the graph 400 depicts results of a dose-response curve fitting that was performed to determine the IC50 value for the compound 118. […] The Hill slope values for compounds with high-affinity as NMDA antagonists (MK-801, Memantine, and NGP1-01) are near unity, with lower potency compounds having greater Hill slop values. The Hill slope value for the compound 118 was −1.157±0.052.
(Displacement assays read how much labelled ligand stays bound in the presence of the test substance.)

Where “and” joins values, the source holds several entries; their conditions need not be identical. Equal entries are not always repeated.

On to “N-(pyridin-4-ylmethyl)-3,11-azatricyclo[6.3.0.0^2,6]undecane [compound 102]”, for which the IC50 (in general, the concentration needed to halve the response being measured) in the test with L-type calcium channel turned out to be 4.9 µM. Moreover, the “displacement of [3H]MK-801” value in test [1] is listed as 9.28±6.17%.
For the compound `c1ccc(CCNC23OC4C5C6CC(C7C6C4C72)C53)cc1` (centres unmarked) [compound 112, 8-phenylethylamino-8,11-oxapentacyclo[5.4.0.0^2,6.0^3,10.0^5,9]undecane], the IC50 with L-type calcium channel was 36.4 µM and 36.9 µM.
`c1ccc(CNC23OC4C5C6CC(C7C6C4C72)C53)cc1` (centres unmarked) [compound 120, 8-benzylamino-8,11-oxapentacyclo[5.4.0.0^2,6.0^3,10.0^5,9]undecane]: the IC50 in the test with L-type calcium channel is 60 µM. Moreover, in test [1], the Hill slope value result was “near unity”.
Regarding “N-benzyl-3,11-azatricyclo[6.3.0.0^2,6]undecane [compound 118]”, in test [1], the “displacement of [3H]MK-801” value turned out to be 41.09±4.1% and the Hill slope value is reported as −1.157±0.052. In addition, the “affinity for the NMDAR (comparison among triquinane-derived compounds)” value in test [1] (among compounds 100, 102, 108, 116 and 118) is on record as “highest affinity”. In addition, the IC50 in test [1] (in the presence of NMDA (100 μM) and Gly (100 μM), dose-response curve fitting) was determined as 1.93 ± 0.018 µM.
Regarding “N-benzyl-4-azahexacyclo[5.4.1.0^2,6.0.0^5,9.0^8,11]dodecan-3-ol [compound 110]”, in the test with L-type calcium channel, the IC50 came to 32.9 µM.
Regarding `CCCCCCCN1CCC2CC3CCCC3C21` (centres unmarked) [compound 122, N-heptyl-3,1-azatricyclo[6.3.0.0^2,6]undecane], in the test on L-type calcium channel, the IC50 came to 55 µM.
“N-cyclohexylmethyl-3,11-azatricyclo[6.3.0.0^2,6]undecane [compound 116]”: the IC50 in the test with L-type calcium channel was 46 µM and 53 µM. In test [1], the “displacement of [3H]MK-801” value is listed as 16.93±4.1%.
On to `C[C@]12N[C@H](Cc3ccccc31)c1ccccc12` [MK-801, reference compound], for which the Hill slope value result in test [1] is “near unity”.
Take `OC12C3C4CC5C6C4C1C6C(C53)N2CCc1ccccc1` (centres unmarked) [compound 104, N-phenylethyl-4-azahexacyclo[5.4.1.0^2,6.0.0^5,9.0^8,11]dodecan-3-ol]: the IC50 in the test with L-type calcium channel is 6.8 µM.
The same measure, in the same setting: under `CCCCCCCN1C2C3C4CC5C6C4C2C6C1(O)C53` (centres unmarked) [compound 106, N-heptyl-4-azahexacyclo[5.4.1.0^2,6.0.0^5,9.0^8,11]dodecan-3-ol] stands 7.5 µM.
On to `CC12CC3CC(C)(C1)CC(N)(C3)C2` [Memantine, reference compound], for which the Hill slope value entry in test [1] was “near unity”.
